Results: ChEMBL document CHEMBL2150884, “Inhibition of cell proliferation by quindoline derivative (SYUIQ-05) through its preferential interaction with c-myc promoter G-quadruplex” (J Med Chem, 2011)
Active and inactive are the calls of the source. The calls are words filed in the database; no cut-off is given here.

Legend:
Nucleic Acid [1] = assay: Binding affinity to c-myc Pu27 DNA G-quadruplex in human CA46 cells assessed as down regulation of c-myc protein expression at 0.05 to 0.1 uM after 4 days by Western blot method; type: cell-based
Nucleic Acid [2] = assay: Binding affinity to c-myc Pu27 DNA G-quadruplex in human Ramos cells assessed as down regulation of TERT protein expression at 0.05 to 0.1 uM after 4 days by Western blot method; type: cell-based
Nucleic Acid [3] = assay: Binding affinity to c-myc Pu27 DNA G-quadruplex in human CA46 cells assessed as down regulation of TERT transcription at 0.1 uM after 4 days by qRT-PCR; type: cell-based
Nucleic Acid [4] = assay: Binding affinity to c-myc Pu27 DNA G-quadruplex in human Ramos cells assessed as down regulation of c-myc protein expression at 0.05 to 0.1 uM after 4 days by Western blot method; type: cell-based
Nucleic Acid [5] = assay: Binding affinity to c-myc Pu27 DNA G-quadruplex in human Ramos cells assessed as down regulation of c-myc transcription at 0.1 uM after 4 days by qRT-PCR; type: cell-based
Nucleic Acid [6] = assay: Binding affinity to c-myc Pu27 DNA G-quadruplex in human Ramos cells assessed as down regulation of TERT transcription at 0.1 uM after 4 days by qRT-PCR; type: cell-based
Nucleic Acid [7] = assay: Binding affinity to c-myc Pu27 DNA G-quadruplex in human CA46 cells assessed as down regulation of c-myc transcription at 0.1 uM after 4 days by qRT-PCR; type: cell-based
Nucleic Acid [8] = assay: Inhibition of NM23-H2 interaction with c-myc DNA G-quadruplex in human HeLa cells assessed as inhibition of c-myc expression at 0.1 uM measured by quantitative RT-PCR analysis; type: cell-based
Nucleic Acid [9] = assay: Inhibition of NM23-H2 interaction with wild type c-myc DNA G-quadruplex expressed in human HeLa cells assessed as dissociation of NM23-H2 from c-myc promoter at 0.05 to 0.1 uM by Ch-IP assay; type: cell-based
Nucleic Acid [10] = assay: Inhibition of NM23-H2 interaction with c-myc mutant promoter DNA expressed in human HeLa cells assessed as dissociation of NM23-H2 from c-myc promoter at 0.05 to 0.1 uM by Ch-IP assay; type: cell-based
[11] = biological target: Telomerase reverse transcriptase (Homo sapiens) (UniProt O14746); assay: […] in human Ramos cells at 0.1 uM for 16 days by TRF length assay; type: cell-based
[12] = biological target: Telomerase reverse transcriptase (Homo sapiens) (UniProt O14746); assay: […] in human Ramos cells at 0.05 uM for 16 days by TRF length assay; type: cell-based
[13] = biological target: Telomerase reverse transcriptase (Homo sapiens) (UniProt O14746); assay: […] in human Ramos cells at 0.05 to 0.1 uM for 16 days by TRF length assay; type: cell-based
Ramos [14] = assay: Induction of senescence in human Ramos cells assessed as flat cells at 0.05 to 0.1 uM after 16 days by beta galactosidase assay; type: functional, cell-based
Ramos [15] = assay: Induction of senescence in human Ramos cells assessed as gaint cells at 0.05 to 0.1 uM after 16 days by beta galactosidase assay; type: functional, cell-based
CA46 [16] = assay: Induction of senescence in human CA46 cells assessed as flat cells at 0.05 to 0.1 uM after 16 days by beta galactosidase assay; type: functional, cell-based
CA46 [17] = assay: Induction of senescence in human CA46 cells assessed as gaint cells at 0.05 to 0.1 uM after 16 days by beta galactosidase assay; type: functional, cell-based
[18] = Cytotoxicity in human GLC82 cells by MTT assay; type: functional, cell-based
HeLa = assay: Cytotoxicity in human HeLa cells by MTT assay; type: functional, cell-based
HL-60 = assay: Cytotoxicity in human HL60 cells by MTT assay; type: functional, cell-based
K562 = assay: Cytotoxicity in human K562 cells by MTT assay; type: functional, cell-based
[19] = Cytotoxicity in human CNE2 cells by MTT assay; type: functional, cell-based; conditions: CNE-2
MGC-803 = assay: Cytotoxicity in human MGC803 cells by MTT assay; type: functional, cell-based
Bel-7402 = assay: Cytotoxicity in human Bel7402 cells by MTT assay; type: functional, cell-based
[20] = Cytotoxicity in human SUNE1 cells by MTT assay; type: functional, cell-based
Ramos [21] = assay: Antiproliferative activity against human Ramos cells assessed as cell viability after 20 days; type: functional, cell-based
CA46 [22] = assay: Antiproliferative activity against cmyc NHE III1 element-deficient human CA46 cells assessed as cell viability after 20 days; type: functional, cell-based
Ramos [23] = assay: Antiproliferative activity against human Ramos cells assessed as cell viability at 0.05 uM after 20 days; type: functional, cell-based
Nucleic Acid [24] = assay: Binding affinity to G-quadruplex HTG21 assessed as change in melting temperature by FRET assay; type: nucleic-acid assay
Nucleic Acid [25] = assay: Binding affinity to G-quadruplex HTG21 by PCR stop assay; type: nucleic-acid assay
Nucleic Acid [26] = assay: Binding affinity to G-quadruplex HTG21 by ITC titration assay; type: nucleic-acid assay
Nucleic Acid [27] = assay: Binding affinity to c-myc Pu27 DNA G-quadruplex assessed as change in melting temperature by FRET assay; type: nucleic-acid assay
Nucleic Acid [28] = assay: Binding affinity to c-myc Pu27 DNA G-quadruplex by PCR stop assay; type: nucleic-acid assay
Nucleic Acid [29] = assay: Binding affinity to c-myc Pu27 DNA G-quadruplex by ITC titration assay; type: nucleic-acid assay
Nucleic Acid [30] = assay: Inhibition of POT1 interaction with wild type c-myc DNA G-quadruplex expressed in human HeLa cells assessed as dissociation of POT1 from c-myc promoter at 0.05 to 0.1 uM by Ch-IP assay; type: cell-based

Sequence of Telomerase reverse transcriptase (Homo sapiens) (O14746 whole entry): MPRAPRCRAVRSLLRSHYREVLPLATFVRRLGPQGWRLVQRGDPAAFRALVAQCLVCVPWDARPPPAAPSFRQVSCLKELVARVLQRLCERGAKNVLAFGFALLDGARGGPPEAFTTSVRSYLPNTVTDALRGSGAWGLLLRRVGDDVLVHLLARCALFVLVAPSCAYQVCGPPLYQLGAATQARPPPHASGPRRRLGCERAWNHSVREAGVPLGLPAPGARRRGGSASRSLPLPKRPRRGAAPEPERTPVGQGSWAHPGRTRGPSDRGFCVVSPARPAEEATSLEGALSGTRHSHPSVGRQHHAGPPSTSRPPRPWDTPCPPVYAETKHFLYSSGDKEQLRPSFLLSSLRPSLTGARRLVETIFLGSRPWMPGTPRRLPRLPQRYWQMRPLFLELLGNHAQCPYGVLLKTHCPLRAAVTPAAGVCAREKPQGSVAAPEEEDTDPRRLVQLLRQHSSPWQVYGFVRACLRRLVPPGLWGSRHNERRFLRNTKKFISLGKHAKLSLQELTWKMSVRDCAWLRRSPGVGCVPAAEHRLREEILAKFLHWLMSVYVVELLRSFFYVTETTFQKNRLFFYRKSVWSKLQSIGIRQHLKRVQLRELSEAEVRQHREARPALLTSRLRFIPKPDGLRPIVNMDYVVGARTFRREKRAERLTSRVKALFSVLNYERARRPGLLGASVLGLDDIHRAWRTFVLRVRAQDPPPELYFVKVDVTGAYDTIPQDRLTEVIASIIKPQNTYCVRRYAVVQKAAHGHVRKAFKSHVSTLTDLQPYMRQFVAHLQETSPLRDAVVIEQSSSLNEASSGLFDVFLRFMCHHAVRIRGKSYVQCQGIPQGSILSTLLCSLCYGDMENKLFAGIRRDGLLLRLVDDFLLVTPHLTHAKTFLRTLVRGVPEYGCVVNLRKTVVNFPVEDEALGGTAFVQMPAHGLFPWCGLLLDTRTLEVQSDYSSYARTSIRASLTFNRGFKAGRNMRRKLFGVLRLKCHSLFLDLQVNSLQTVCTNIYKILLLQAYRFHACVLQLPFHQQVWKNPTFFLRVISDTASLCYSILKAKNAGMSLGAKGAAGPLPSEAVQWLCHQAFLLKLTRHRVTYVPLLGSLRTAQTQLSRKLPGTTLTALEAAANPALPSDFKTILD

CN(C)CCCNc1c2ccccc2nc2c1[nH]c1ccccc12
Activity (Nucleic Acid [1]): Active
Activity (Nucleic Acid [2]): Active
Activity (Nucleic Acid [3]): inactive
Activity (Nucleic Acid [4]): Active
Activity (Nucleic Acid [5]): Active
Activity (Nucleic Acid [6]): Active
Activity (Nucleic Acid [7]): inactive
inhibition (Nucleic Acid [8]): Active
inhibition (Nucleic Acid [9]): Active
inhibition (Nucleic Acid [10]): inactive
inhibition [11]: Active
inhibition [12]: Active
inhibition [13]: Active
Activity (Ramos [14]): Active
Activity (Ramos [15]): Active
Activity (CA46 [16]): inactive
Activity (CA46 [17]): inactive
IC50 [18]: 240 nM
IC50 (HeLa): 240 nM
IC50 (HL-60): 240 nM
IC50 (K562): 240 nM
IC50 [19]: 240 nM
IC50 (MGC-803): 240 nM
IC50 (Bel-7402): 240 nM
IC50 [20]: 240 nM
Activity (Ramos [21]): Dose-dependent effect
inhibition (CA46 [22]): inactive
Activity (Ramos [23]): Active
ΔTm (Nucleic Acid [24]): 10 °C
IC50 (Nucleic Acid [25]): 2500 nM
Ka (Nucleic Acid [26]): 1.79 10^4 M^-1
ΔTm (Nucleic Acid [27]): 13 °C
IC50 (Nucleic Acid [28]): 1800 nM
Ka (Nucleic Acid [29]): 4.03 10^4 M^-1
inhibition (Nucleic Acid [30]): inactive
